From patent publication US5405857A, “3-substituted 1,2,3,4,-oxatriazole-5-imine compounds, a process for the preparation thereof and a pharmaceutical preparation containing said compounds” (A/S GEA Farmaceutisk Fabrik, priority 1991, dated 1995)
“Also recorded” adds a separate entry of the source. Counter-ions that a name gives are not always drawn.

What was measured:
[1] = Maximum tolerable dose (MTD) study p.o.; for Clinical observations: key: N.R.: nothing remarkable; for Increase in weight: key: N.R.: nothing remarkable; type: in vivo, rat; settings: rat, in vivo, po; peroral, rats
Protocol: (§1) Two tests were carried out on male rats, namely a determination of the "maximum tolerable dose" (MTD) and a test using multiple peroral doses. In addition, a LD50 test was carried out intravenously on mice.
(§2) In a MTD-test 10 animals were administered a dose of the substance once a day for a week, during which period the clinical and hematological parameters were recorded. When no signs of side effects appeared, the dose was increased in the following weeks until side effects appeared. The hemotological parameters measured were the following: the number of red and white blood cells, the number of blood platelets, the hemoglobin percentage, the hematocrit, and for the red blood cells also the average cell volume, the average cell hemoglobin content, and the average cell hemoglobin concentration. Furthermore, a differential count of the white blood cells was made.

male rats [2] = test: Maximum tolerable dose (MTD) study p.o.; for Clinical observations: key: N.R.: nothing remarkable; for Increase in weight: key: N.R.: nothing remarkable; type: in vivo, rat; settings: p.o.
Protocol: as §1, §2

[3] = Maximum tolerable dose (MTD) study i.p.; type: in vivo, rat; settings: rat, in vivo, ip; intraperitoneal, rats
Protocol: as §1, §2

male rats [4] = test: Maximum tolerable dose (MTD) study i.p.; type: in vivo, rat; settings: i.p.
Protocol: as §1, §2

blood platelets = test: Inhibition of blood platelet aggregation (aggregometer, ADP); type: cell-based, human (healthy testees); settings: Platelet, 0.05 h; human PRP, ADP 2 to 4 μM, 3 min incubation, 37° C.; read-out: IC50 (Inhibition of blood platelet aggregation)
Protocol: Compounds according to the invention were tested for their inhibition of clumping together (aggregation) of blood platelets (thrombocytes), which is the first phase of the formation of blood clots (thrombi). Such an inhibition may prevent the formation of blood clots and inhibit the development of new thrombi after a diagnosed thrombus.
Citrate stabilized ( 0.38% of sodium citrate, final concentration) venous blood from healthy testees is used, who have not used medicine for at least 8 days. Slight centrifugation (160×g for 10 minutes) results in PRP (blood plasma rich in platelets) which is pipetted. PPP (blood plasma poor in platelets) is obtained by an intense centrifugation (3000×g for 10 minutes) of the remaining blood. The light transmission is measured by the aggregometer (CHRONOLOG). PRP allows nearly no light transmitaaion, while PPP allows complete transmission of light. The PRP is placed in the aggregometer at 37° C. while being stirred by a magnet. Addition of a pro-aggregating substance causes the PRP to aggregate gradually and an increasing light transmission takes place at the same time. At complete aggregation a light transmission corresponding to PPP is obtained. Adnosine diphosphate (ADP) is used as pro-aggregating substance, said substance representing a basic biochemical mechanism for aggregation of blood platelets. The test substances are incubated for 3 minutes in PRP placed in the aggregometer at 37° C. during magnetic stirring. A predetermined positively aggregating dosage of adenosine diphosphate (ADP) (2 to 4 μM) is then added. […] A so-called IC50 -value (that is the concentration inhibiting the aggregation by 50% relative to the control aggregation) is calculated for each test substance by linear regression analysis (log concentration μM as constant ad abscissa and % inhibition as variable ad ordinate). The following known reference substances have been used: nitroglycerine (GTN), sodium nitroprusside (NNP) and SIN-1 (the active metabolite of molsidomine).

[5] = 10 mg/kg once a day for a week, relative to control
[6] = 20 mg/kg once a day for a week, relative to control
[7] = 40 mg/kg once a day for a week, relative to control
[8] = 20 mg/kg once a day for a week, relative to control, hydrochloride, 20 mg/kg

Compound: Cc1c(Cl)cccc1-[n+]1noc([NH-])n1 [Example 1, 3-(3-chloro-2-methylphenyl)-1,2,3,4-oxatriazole-5-imine hydrochloride]
- MTD [1]: 40 mg/kg
- Clinical observations (male rats [2]; [5]): N.R.
- Hematological parameters (male rats [2]; [5]): N.R.
- Increase in weight (male rats [2]; [5]): N.R.
- Clinical observations (male rats [2]; [6]): N.R.
- Hematological parameters (male rats [2]; [6]): N.R.
- Increase in weight (male rats [2]; [6]): N.R.
- Clinical observations (male rats [2]; [7]): N.R.
- Hematological parameters: hemoglobin percentage (HGB) (male rats [2]; [7]): reduced HGB
- Hematological parameters: red blood cells (RBC) (male rats [2]; [7]): reduced RBC
- Increase in weight (male rats [2]; [7]): N.R.
- Hematological parameters: white blood cells (WBC) (male rats [2]; 40 mg/kg once a day for a week, relative to control, hydrochloride, 40 mg/kg): increased WBC; also recorded: increased content of white blood cells
- Signs of anemia (male rats [2]; 40 mg/kg, after one week): signs of anemia
- MTD [3]: ~20 mg/kg
- Clinical observations (male rats [4]; [5]): N.R.
- Hematological parameters (male rats [4]; [5]): N:R
- Increase in weight (male rats [4]; [5]): N.R.
- Increase in weight (male rats [4]; [6]): reduced
- Clinical observations (male rats [4]; [8]): a passing CNS effect, where the animals a few minutes after the administration seemed nervous and hyperactive
- Hematological parameters: neutrophilic granulocytes with toxic granulation (male rats [4]; [8]): increased number of neutrophilic granulocytes and a toxic granulation in some cells
- Tolerability (in words) (male rats [4]; rats, up to 20 mg/kg): tolerated with only minor side effects
- IC50 (blood platelets): 0.32 µM
